Test results reported in US6841546B2, “Substituted tetracycline compounds as antifungal agents” (Paratek Pharmaceuticals, Inc., priority 2001, dated 2005).

Assay: Mammalian Cytotoxicity Assay (Resazurin)
Type: cell-based
Conditions: African green monkey (COS-1) and Chinese hamster (CHO)
Experimental: COS-1 and CHO cell suspensions are prepared, seeded into 96-well tissue culture treated black-walled microtiter plates (density determined by cell line), and incubated overnight at 37° C., in 5% CO2 and approximately 95% humidity. The following day serial dilutions of drug are prepared under sterile conditions and transferred to cell plates. Cell/Drug plates are incubated under the above conditions for 24 hours. Following the incubation period, media/drug is aspirated and 50 μl of Resazurin is added. Plates are then incubated under the above conditions for 2 hours and then in the dark at room temperature for an additional 30 minutes. Fluorescence measurements are taken (excitation 535 nm, emission 590 nm). The IC50 (concentration of drug causing 50% growth inhibition) is then calculated.

Compound	IC50 at 24 h [µg/mL]
C[C@H]1c2cccc(O)c2C(=O)C2=C(O)[C@]3(O)C(=O)C(C(N)=O)=C(O)[C@@H](N(C)C)[C@@H]3[C@@H](O)[C@@H]21 [doxycycline]	> 25
CN(C)c1ccc(O)c2c1C[C@H]1C[C@H]3[C@H](N(C)C)C(O)=C(C(N)=O)C(=O)[C@@]3(O)C(O)=C1C2=O [minocycline]	> 25
